Data: patent US6515002B2, “Compounds and compositions for treating C1s-mediated diseases and conditions” (3-Dimensional Pharmaceuticals, Inc., priority 1999, dated 2003)

Target: T1, C1s (Homo sapiens, UniProt P09871)
T1 construct: purchased Enzyme Research, South Bend, Ind
T1 sequence (P09871 438-688 limits assumed): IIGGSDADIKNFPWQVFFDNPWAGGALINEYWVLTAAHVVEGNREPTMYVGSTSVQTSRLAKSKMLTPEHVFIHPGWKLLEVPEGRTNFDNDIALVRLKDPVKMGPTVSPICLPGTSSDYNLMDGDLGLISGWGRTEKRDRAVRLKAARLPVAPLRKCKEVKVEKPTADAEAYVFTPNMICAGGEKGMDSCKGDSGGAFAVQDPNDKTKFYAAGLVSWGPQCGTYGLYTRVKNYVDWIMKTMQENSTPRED
T1 sequence (P09871 16-437 partner limits assumed): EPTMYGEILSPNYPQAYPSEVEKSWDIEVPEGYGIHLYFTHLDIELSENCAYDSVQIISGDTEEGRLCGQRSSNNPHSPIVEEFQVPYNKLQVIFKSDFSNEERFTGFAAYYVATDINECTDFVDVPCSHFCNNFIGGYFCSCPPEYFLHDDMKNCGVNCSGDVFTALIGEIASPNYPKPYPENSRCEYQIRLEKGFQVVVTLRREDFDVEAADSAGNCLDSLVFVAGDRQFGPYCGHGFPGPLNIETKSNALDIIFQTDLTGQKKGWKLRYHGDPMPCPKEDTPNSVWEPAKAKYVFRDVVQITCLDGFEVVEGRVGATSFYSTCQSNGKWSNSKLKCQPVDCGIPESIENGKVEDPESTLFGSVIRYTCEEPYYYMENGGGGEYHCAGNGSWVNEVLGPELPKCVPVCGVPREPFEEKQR
Assay: In vitro Inhibition of C1s (Ki determination, Z-Gly-Arg-5-Bzl/DTNB hydrolysis)
Type: biochemical
Details: purified activated C1s 7.3 nM, substrate Z-Gly-Arg-5-Bzl 45 μM, DTNB 200 μM, pH 7.5, 37° C.
Experimental: Reagents: All buffer salts were obtained from Sigma Chemical Company (St. Louis, Mo.), and were of the highest purity available.
Ki Determinations: All assays are based on the ability of the test compound to inhibit the Cis catalyzed hydrolysis of the substrate Z-Gly-Arg-5-Bzl via an intermediate reaction with 5,5′-dithio-bis(2-nitrobenzoic acid) (DTNB). [Complement C1s is available commercially from Enzyme Research, South Bend, Ind.] In a typical Ki determination, substrate is prepared in DMSO, and diluted into an assay buffer consisting of 50 mM HEPES, 200 mM NaCl, pH 7.5. […] In general, substrate concentrations are lower than the experimentally determined value for Km. […]
In a typical Ki determination, into each well of a 96-well plate is pipetted 280 μL of substrate solution, 10 μL of test compound solution, and the plate allowed to thermally equilibrate at 37° C. for 15 minutes. Reactions were initiated by the addition of a 10 μL aliquot of the enzyme and the absorbance increase at 405 nm is recorded for 5 minutes in a Molecular Devices plate reader. […] The ratio of the velocity (rate of change in absorbance as a function of time) for a sample containing no test compound is divided by the velocity of a sample containing test compound, and is plotted as a function of test compound concentration. The data are fit to a linear regression, and the value of the slope of the line calculated. […]

- Ki: 30 nM
Substance: 4-[4-(3-{[(2,4-Difluorophenyl)sulfonyl]amino}phenyl)(1,3-thiazol-2-yl)]-5-methylthiophene-2-carboxamidine [Example 290]
